{"source": "patent US8129383B2", "about": "“Aminopterin dosage forms and methods for inflammatory disorders” (Aminopterin LLC, priority 2005, dated 2012)", "key": {"[1]": {"test_system": "neutrophils that accumulated in the carrageenan-treated air pouches", "conditions": "weekly ip injection days 1, 7, 14, 21; carrageenan day 22, exudate after 4 hours", "description": "J. Clin. Invest., 1993. 92(6):2675-82].\nA separate group of 5 animals was given vehicle by ip injection on the same days (0.9% saline, control, n=5). On day 16, air pouches were induced on the animals by injecting 3 ml of air subcutaneously on the back. On day 22 (i.e. one day after the last dose of drug or vehicle), inflammation was induced by injection of 1 ml of a suspension of carrageenan (2% weight/volume in calcium- and magnesium-free PBS). The mice were put back in their cages and allowed to run free for 4 hours. […] After 4 hours, the animals were sacrificed, the pouches flushed with 2 ml of PBS and the exudates harvested. Aliquots were diluted 1:1 with methylene blue (0.01% w/v in PBS), and the cells were counted."}, "ma104 cells": {"test_system": "ma104 cells", "conditions": "read-out: EC50 of adenosine release (prior art); Cronstein'91; cited from earlier work"}, "canine atopic dermatitis": {"test_system": "canine atopic dermatitis", "conditions": "oral about 0.2 mg/kg/week", "description": "[…] Subjects were assessed at baseline and at weeks 2 and 4 of the trial, and every other week of the 1-year extension phase.\nSubjects were assessed at baseline and at weeks 2 and 4."}, "[2]": {"test_system": "carrageenan-induced inflammation in air pouches", "test": "duration of efficacy in the murine air-pouch model after cessation of 4 weeks of dosing", "format": "in vivo, mice", "conditions": "aminopterin 0.05 mg/kg, methotrexate 1.0 mg/kg", "description": "We therefore examined the rate at which anti-inflammatory activity was lost in the air-pouch model after the cessation of 4 weeks of dosing at the maximally efficacious dose (FIG. 2).\nOn day 25 the air pouches were re-inflated with 1.5 ml of air. Pouches were re-inflated as needed to maintain them."}, "[3]": {"test_system": "influx of neutrophils (PMNs) in hyperoxia", "test": "rat oxygen-toxicity model of bronchopulmonary dysplasia", "format": "in vivo, rats", "conditions": "single 0.35 mg/kg ip day 2 after birth, 95% oxygen, sacrifice day 8", "text": "Mason, S, N.; Richard L. Auten, J. Lung inflammation in hyperoxia can be prevented by antichemokine treatment in newborn rats. American Journal of Respiratory Critical Care Medicine 2000, 162, 2316-2323]. […] Litter sizes were the same. […] Dams were rotated daily between air and oxygen cages to avoid maternal oxygen toxicity. On day 8, the pups were weighed and then euthanized, tracheas are cannulated and the pulmonary artery is perfused with saline. Bronchoalveolar lavage fluid (BALF) was then obtained for cell count and chemokine analysis (FIG. 3). The lungs were removed and snap frozen for myeloperoxidase activity assay (neutrophil accumulation within lung parenchyma) and 8-isoprostane, a marker of lipid oxidation. The pulmonary artery was perfused and the lungs were inflation-fixed with buffered formalin at 25 cm H2O."}}, "data": [{"compound": "CN(Cc1cnc2nc(N)nc(N)c2n1)c1ccc(C(=O)N[C@@H](CCC(=O)O)C(=O)O)cc1", "note": "[methotrexate]", "values": [{"measurement": "EC50 for diminishing the number of neutrophils accumulated in carrageenan-treated air pouches", "setting": "[1]", "value": 0.04, "unit": "mg/kg/wk"}, {"measurement": "EC50", "setting": "ma104 cells", "value": "~1", "unit": "nM"}, {"measurement": "time to produce efficacy compared to aminopterin", "setting": "canine atopic dermatitis; 4-week trial", "value": "took longer to produce efficacy compared to aminopterin"}, {"measurement": "outcome of the five treated dogs", "setting": "canine atopic dermatitis; assessed at weeks 2 and 4", "value": "Three dogs did not do well, one had not improved as of the last assessment and one dog improved markedly"}, {"measurement": "difference between aminopterin and methotrexate in rate of recovery of inflammation", "setting": "[2]; 8, 12 or 22 days after last of 4 weekly ip doses", "value": "no statistically significant difference"}, {"measurement": "duration of action", "setting": "[2]; after last of 4 weekly ip doses", "value": "quite long"}, {"measurement": "influx of neutrophils in bronchoalveolar lavage fluid", "setting": "[3]", "value": "failed to reduce the influx of neutrophils"}]}]}
